Experimental findings from patent US5506244A, “Cyclic amino acid derivatives” (Ciba-Geigy Corporation, priority 1994, dated 1996) are described below.

The target of test [1] is T1, angiotensin-converting enzyme (ACE) (Oryctolagus cuniculus, UniProt P12822).
T1 sequence (P12822 34-1310): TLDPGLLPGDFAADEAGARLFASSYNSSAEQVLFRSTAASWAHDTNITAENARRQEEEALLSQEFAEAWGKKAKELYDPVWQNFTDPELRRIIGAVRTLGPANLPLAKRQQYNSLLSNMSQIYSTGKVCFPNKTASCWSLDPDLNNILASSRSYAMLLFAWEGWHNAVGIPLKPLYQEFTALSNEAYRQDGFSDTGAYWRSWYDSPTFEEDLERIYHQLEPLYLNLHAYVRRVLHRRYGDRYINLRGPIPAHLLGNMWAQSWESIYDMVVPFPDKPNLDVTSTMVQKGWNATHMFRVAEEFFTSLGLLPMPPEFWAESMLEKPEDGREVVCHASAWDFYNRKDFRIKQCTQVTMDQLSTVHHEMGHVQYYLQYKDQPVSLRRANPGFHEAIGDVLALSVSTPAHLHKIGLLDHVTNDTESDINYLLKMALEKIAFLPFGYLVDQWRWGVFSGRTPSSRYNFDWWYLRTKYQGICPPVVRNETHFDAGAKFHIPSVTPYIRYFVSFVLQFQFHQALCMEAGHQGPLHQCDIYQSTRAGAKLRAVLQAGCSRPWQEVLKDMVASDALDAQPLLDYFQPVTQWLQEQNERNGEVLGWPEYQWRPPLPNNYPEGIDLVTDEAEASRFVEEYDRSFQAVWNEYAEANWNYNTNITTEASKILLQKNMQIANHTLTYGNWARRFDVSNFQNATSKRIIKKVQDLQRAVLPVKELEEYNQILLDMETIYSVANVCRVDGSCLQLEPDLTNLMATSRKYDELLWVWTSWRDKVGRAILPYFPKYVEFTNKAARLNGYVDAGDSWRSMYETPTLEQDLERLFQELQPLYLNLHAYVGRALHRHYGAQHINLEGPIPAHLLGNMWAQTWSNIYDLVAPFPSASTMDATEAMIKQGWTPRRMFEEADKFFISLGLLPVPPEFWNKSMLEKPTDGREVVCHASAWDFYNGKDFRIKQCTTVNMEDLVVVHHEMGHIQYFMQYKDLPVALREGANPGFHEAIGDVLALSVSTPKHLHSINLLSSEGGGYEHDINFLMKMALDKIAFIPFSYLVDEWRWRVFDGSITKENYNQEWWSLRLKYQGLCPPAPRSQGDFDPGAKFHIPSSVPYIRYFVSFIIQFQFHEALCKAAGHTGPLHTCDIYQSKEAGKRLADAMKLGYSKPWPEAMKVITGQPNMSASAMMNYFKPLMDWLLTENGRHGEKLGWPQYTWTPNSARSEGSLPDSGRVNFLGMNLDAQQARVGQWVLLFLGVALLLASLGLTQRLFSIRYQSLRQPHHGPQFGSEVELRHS
The experiment in a line: in vitro inhibition of angiotensin-converting enzyme (ACE). In kind it is biochemical. The method, then:
(§1) In vitro testing is most appropriate for the free carboxylic acids of the invention. The test compound is dissolved in dimethyl sulfoxide, ethanol, or 0.25 M sodium bicarbonate solution, and the solution is diluted with buffer to the desired concentration.
The buffer for the ACE assay is 300 mM NaCl, 100 mM KH2 PO4 (pH 8.3). The reaction is initiated by the addition of 100 μl of hippuryl-histidyl-leucine (2 mg/ml) to tubes containing enzyme and drug in a volume of 150 μl and tubes are incubated for 30 minutes at 37° C. The reaction is terminated by the addition of 0.75 ml 0.6 N NaOH. 100 μl of freshly prepared 0-pthaldehyde solution (2 mg/ml in methanol) is added to the tubes, the contents are mixed and allowed to stand at room temperature. After 10 minutes, 100 μl of 6 N HCl is added. The tubes are centrifuged and the supernatant optical density is read at 360 nm.

Test [2] addresses T2, neutral endopeptidase (NEP, EC 3.4.24.11) (Rattus norvegicus, UniProt P07861).
T2 construct: rat kidney cortex membranes prepared by method of Maeda; from tissue; host or cells: rat kidney cortex membranes
T2 sequence (P07861 1-750): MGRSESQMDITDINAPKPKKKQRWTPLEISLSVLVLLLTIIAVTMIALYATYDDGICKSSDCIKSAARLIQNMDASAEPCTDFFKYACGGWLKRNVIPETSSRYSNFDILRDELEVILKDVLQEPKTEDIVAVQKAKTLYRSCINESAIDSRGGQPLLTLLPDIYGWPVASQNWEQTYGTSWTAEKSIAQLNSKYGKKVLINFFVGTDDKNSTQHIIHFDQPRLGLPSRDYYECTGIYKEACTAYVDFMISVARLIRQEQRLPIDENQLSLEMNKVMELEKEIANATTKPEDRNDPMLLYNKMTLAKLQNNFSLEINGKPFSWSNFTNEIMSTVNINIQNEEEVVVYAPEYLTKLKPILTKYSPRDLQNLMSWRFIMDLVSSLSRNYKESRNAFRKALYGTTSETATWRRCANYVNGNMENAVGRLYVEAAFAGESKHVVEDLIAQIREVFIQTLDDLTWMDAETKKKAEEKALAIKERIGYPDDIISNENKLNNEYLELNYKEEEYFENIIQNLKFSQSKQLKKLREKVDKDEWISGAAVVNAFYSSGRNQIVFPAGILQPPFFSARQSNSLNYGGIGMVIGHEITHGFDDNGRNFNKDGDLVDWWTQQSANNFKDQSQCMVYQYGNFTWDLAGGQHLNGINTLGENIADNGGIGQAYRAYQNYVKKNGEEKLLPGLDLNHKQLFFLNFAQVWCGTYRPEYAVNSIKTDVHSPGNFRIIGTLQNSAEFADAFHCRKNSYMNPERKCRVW
The experiment in a line: in vitro inhibition of neutral endopeptidase (GAAP assay). In kind it is biochemical. The note with it: GAAP 500 μM, rat kidney cortex membranes, pH 7.4, 25° C., 10 minutes. The method, then: as §1
The in vitro inhibition of neutral endopeptidase (NEP, EC 3.4.24.11 ) can be determined as follows:
Neutral endopeptidase 3.4.24.11 activity is determined by the hydrolysis of the substrate glutaryl-Ala-Ala-Phe-2-naphthylamide (GAAP) using a modified procedure of Orlowski and Wilk (1981). The incubation mixture (total volume 125 μl) contains 4.2 μg of protein (rat kidney cortex membranes prepared by method of Maeda et at, 1983), 50 mM iris buffer, pH 7.4 at 25° C., 500 μM substrate (final concentration), and leucine aminopeptidase M (2.5 μg). The mixture is incubated for 10 minutes at 25° C. and 100 μl of fast garnet (250 μg fast garnet/ml of 10% Tween 20 in 1 M sodium acetate, pH 4.2) is added. Enzyme activity is measured spectrophotometrically at 540 nm. One unit of NEP 24.11 activity is defined as 1 nmol of 2-naphthylamine released per minute at 25° C at pH 7.4. IC50 values are determined, i.e. the concentration of test compound required for 50% inhibition of the release of 2-naphthylamine.

The test system of test [3] is Angiotensin I induced pressor response. Kind of test: inhibition of the angiotensin I induced pressor response in normotensive rats. The note with it: 10 mg/Kg p.o., angiotensin I 300 ng/kg i.v. It is filed as in vivo, rat. As for the experimental part:
The in vivo test for intravenously administered compounds is performed with male, normotensive rats, which are anesthetized with sodium metofan. A femoral artery and femoral vein are cannulated respectively for direct blood pressure measurement on i.v. administration of angiotensin I and i.v. or p.o. administration of a compound of this invention. After the basal blood pressure is stabilized, pressor responses to 3 challenges of 300 ng/kg angiotensin I i.v., at 15 minute intervals, are obtained. Such pressure responses are usually again obtained at 15, 30, 60 and 90 minutes, and then every hour up to 6 hours after i.v. or p.o. administration of the compound to be tested, and compared with the initial responses. Any observed decrease of said pressor response is an indication of Angiotensin I converting enzyme inhibition.

SMILES strings stand for the structures. pIC50: −log10 of the molar value. Where two headings read alike, the source gives them in different places.

In the case of `CC(C)[C@H](S)C(=O)NC1(C(=O)N[C@@H](Cc2ccc(O)cc2)C(=O)O)CCCC1` [Example 2a], the pIC50 in test [1] (hippuryl-histidyl-leucine substrate, pH 8.3, 37° C., 30 minutes, read-out: IC50 in the ACE in vitro assay) is around 8.15; in test [2], around 8.70. As to `CCOC(=O)[C@H](Cc1ccc(O)cc1)NC(=O)C1(NC(=O)[C@@H](SC(C)=O)C(C)C)CCCC1` [1 (b), N-[[1-[(2(S)-acetylmercapto-3-methyl-1-oxobutyl)amino]-1-cyclopentyl]carbonyl]-L-tyrosine ethyl ester], the “duration of inhibition of the Angiotensin I induced pressor response” value in test [3] is listed as “six”. Regarding `COc1ccc(C[C@H](NC(=O)C2(NC(=O)[C@@H](S)C(C)C)CCCC2)C(=O)O)cc1` [Example 2i], the negative-log IC50 (pIC50) in test [1] is around 7.72; in test [2], around 8.66.

Usually pIC50 stands for −log10 of the IC50, conventionally taken in molar units.
